The target of experiment [1] is T1, TAS1R1-372A and TAS1R3-757R (Homo sapiens, UniProt Q7RTX0+Q7RTX1, C757R).
T1 construct: expressed in transfected cells; host or cells: HEK293
T1 sequence (Q7RTX1 21-841): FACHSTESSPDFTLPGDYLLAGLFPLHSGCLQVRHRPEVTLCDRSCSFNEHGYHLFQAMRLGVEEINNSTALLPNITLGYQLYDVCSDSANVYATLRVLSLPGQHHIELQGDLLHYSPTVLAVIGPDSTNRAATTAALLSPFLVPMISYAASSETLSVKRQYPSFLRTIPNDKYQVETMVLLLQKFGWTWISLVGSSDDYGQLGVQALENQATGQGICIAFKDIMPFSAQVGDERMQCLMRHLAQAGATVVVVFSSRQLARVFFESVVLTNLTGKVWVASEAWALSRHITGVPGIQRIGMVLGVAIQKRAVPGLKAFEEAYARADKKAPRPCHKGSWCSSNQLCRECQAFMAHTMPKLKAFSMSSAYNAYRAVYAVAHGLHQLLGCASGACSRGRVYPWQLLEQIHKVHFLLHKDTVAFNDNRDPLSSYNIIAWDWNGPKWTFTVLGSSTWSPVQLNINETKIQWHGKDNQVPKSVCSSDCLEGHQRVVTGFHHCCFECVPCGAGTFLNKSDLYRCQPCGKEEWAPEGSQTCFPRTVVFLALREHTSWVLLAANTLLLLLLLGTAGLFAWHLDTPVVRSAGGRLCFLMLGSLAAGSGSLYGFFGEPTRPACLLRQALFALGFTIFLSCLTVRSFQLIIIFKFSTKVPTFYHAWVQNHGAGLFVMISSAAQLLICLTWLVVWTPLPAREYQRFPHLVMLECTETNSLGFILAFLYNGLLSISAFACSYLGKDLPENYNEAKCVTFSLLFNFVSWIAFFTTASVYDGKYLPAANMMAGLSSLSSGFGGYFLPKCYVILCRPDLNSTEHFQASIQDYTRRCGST
T1 sequence (Q7RTX0 21-852 C757R): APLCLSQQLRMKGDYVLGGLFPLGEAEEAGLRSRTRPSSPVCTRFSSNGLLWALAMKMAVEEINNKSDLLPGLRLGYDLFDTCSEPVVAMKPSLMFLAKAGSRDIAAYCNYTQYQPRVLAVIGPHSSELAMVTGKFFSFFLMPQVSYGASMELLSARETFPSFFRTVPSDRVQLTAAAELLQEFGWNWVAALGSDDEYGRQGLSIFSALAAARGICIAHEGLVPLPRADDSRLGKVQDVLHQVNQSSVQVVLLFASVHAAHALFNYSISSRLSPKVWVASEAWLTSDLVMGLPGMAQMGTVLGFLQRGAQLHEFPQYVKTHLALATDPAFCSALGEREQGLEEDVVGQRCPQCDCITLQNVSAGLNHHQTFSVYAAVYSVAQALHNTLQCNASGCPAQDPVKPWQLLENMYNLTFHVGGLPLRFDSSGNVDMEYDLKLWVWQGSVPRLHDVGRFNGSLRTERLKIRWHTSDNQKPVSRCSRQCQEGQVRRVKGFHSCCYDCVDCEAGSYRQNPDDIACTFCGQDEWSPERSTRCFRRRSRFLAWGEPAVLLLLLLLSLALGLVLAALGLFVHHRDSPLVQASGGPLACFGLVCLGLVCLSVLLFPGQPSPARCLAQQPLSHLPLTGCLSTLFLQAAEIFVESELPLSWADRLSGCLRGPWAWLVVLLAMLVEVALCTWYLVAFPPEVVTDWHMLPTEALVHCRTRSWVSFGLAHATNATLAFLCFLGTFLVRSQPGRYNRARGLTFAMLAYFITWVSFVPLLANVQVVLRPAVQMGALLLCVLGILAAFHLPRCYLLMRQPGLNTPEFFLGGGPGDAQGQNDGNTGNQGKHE
As to the kind of experiment: Ca2+ imaging (bath perfusion) in HEK cells transfected with TAS1R1-372A, TAS1R3-757R and Gα16-i3. Type of experiment: cell-based. The note with it: 5∼100 mM. As for the experimental part:
HEK293 cells were cultured at 37°C under a humidified atmosphere containing 5% CO2 in Dulbecco's modified Eagle's medium supplemented with 10% fetal bovine serum. To obtain reproducible Ca^2+ responses, cells were split every 2 days before cells become confluent. Cells were discarded after 2 months of passages and new cells were prepared from frozen-stock. For calcium imaging experiments, cells were seeded onto a 35 mm recording chamber or poly-D-lysine coated 96-well black-wall, clear-bottom recording plates. After 24 hrs at 37°C, confluent cells (60∼70%) were washed in OptiMEM medium supplemented with GlutaMAX-I (invitrogen) and plasmid DNAs were transiently cotransfected into HEK293 cells using Lipofectamine2000 regent (invitrogen) (2.0 µl per 1.0 µg DNA). TAS1Rs (or their mutants) and Gαl6-i3 were transfected using 1.5 and 1.0 µg of plasmid for 35 mm recording chambers, 0.09 and 0.06 µg of plasmid per well for 96-well plates, respectively. […] Immuno staining and Ca^2+ imaging assays were performed 36∼40 hrs after transfection.
Two Ca^2+ imaging systems were used. A bath perfusion system was used for kinetics of activation. Transfected cells in 35 mm recording chambers were washed in Hank's balanced salt solution (HBSS) containing 10 mM HEPES, pH 7.4, and loaded with 3.0 µM Fluo-4 acetoxymethyl ester (invitrogen) for 1.0 hr at 37°C. The dye-loaded cells were subjected to Ca^2+ imaging. Taste solutions diluted in HBSS were applied sequentially to the cells for 30 s with a peristaltic pump at a flow rate of 1.5 ml/min, and fluorescence images were obtained using a S Fluor ×20/0.75 objective lens (Nikon) via a cooled-CCD camera (C6790, Hamamatsu Photonics) fitted to a TE300 microscope (Nikon). Acquisition and analysis of these fluorescence images used AquaCosmos software (v. 1.3, Hamamatsu Photonics). A 3 min interval was left between each tastant application to ensure that the cells were not desensitized as a result of the previous application of tastants. Responses were measured from 30 individual responding cells. […] Isoproterenol (ISO, 10 µM) was used as positive control, which stimulates endogenous β-adrenergic receptors, providing that the Gα16-dependent signal transduction cascade was functional.

The test system of the next experiment is 254 Japanese subjects. On the set-up: method as in PMID 11839608. The note with it: humans; cited from earlier work.

The source of these data is article PMC2725291, “Genetic and Molecular Basis of Individual Differences in Human Umami Taste Perception” (PLoS ONE, 2009).

For `N[C@@H](CCC(=O)O)C(=O)[O-].[Na+]` [MSG, monosodium glutamate], the “activation (Ca2+ mobilization) of transfected cells” value in experiment [1] is recorded as “elicited transient intracellular calcium increases”. In addition, the “difference of taste thresholds between taster and hypotaster groups” value with 254 Japanese subjects is recorded as “about 5 fold”.
